Test results as given in PubChem BioAssay (NCI).
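Each compound was tested at five concentrations against cells in 96-well plates for 48 hours. TGI is the concentration that stops growth completely.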

Key:
Assay in all cases: growth of human tumour cells (NCI), 48 h
LOX IMVI melanoma = tested on: LOX IMVI melanoma
IGROV1 ovarian = tested on: IGROV1 ovarian
786-0 renal = tested on: 786-0 renal
SF-539 CNS = tested on: SF-539 CNS
UACC-62 melanoma = tested on: UACC-62 melanoma
SNB-19 CNS = tested on: SNB-19 CNS
NCI-H522 lung = tested on: NCI-H522 lung
SN12C renal = tested on: SN12C renal
CCRF-CEM leukemia = tested on: CCRF-CEM leukemia
A549 NSCLC = tested on: A549 NSCLC
DLD-1 colon = tested on: DLD-1 colon
SK-MEL-28 melanoma = tested on: SK-MEL-28 melanoma
OVCAR-8 ovarian = tested on: OVCAR-8 ovarian
SR leukemia = tested on: SR leukemia
NCI-H460 lung = tested on: NCI-H460 lung
XF 498 CNS = tested on: XF 498 CNS
COLO 205 colon = tested on: COLO 205 colon
K-562 leukemia = tested on: K-562 leukemia
DMS 273 small cell lung = tested on: DMS 273 small cell lung
NCI-H23 lung = tested on: NCI-H23 lung
M19-MEL melanoma = tested on: M19-MEL melanoma
SK-MEL-2 melanoma = tested on: SK-MEL-2 melanoma
UACC-257 melanoma = tested on: UACC-257 melanoma
HOP-92 NSCLC = tested on: HOP-92 NSCLC
SF-295 CNS = tested on: SF-295 CNS
UO-31 renal = tested on: UO-31 renal
LXFL 529 NSCLC = tested on: LXFL 529 NSCLC
SK-MEL-5 melanoma = tested on: SK-MEL-5 melanoma
HOP-62 NSCLC = tested on: HOP-62 NSCLC
RXF-631 renal = tested on: RXF-631 renal
DMS 114 small cell lung = tested on: DMS 114 small cell lung
MALME-3M melanoma = tested on: MALME-3M melanoma
HT29 colon = tested on: HT29 colon
EKVX NSCLC = tested on: EKVX NSCLC
HL-60(TB) leukemia = tested on: HL-60(TB) leukemia
OVCAR-4 ovarian = tested on: OVCAR-4 ovarian
ACHN renal = tested on: ACHN renal
CAKI-1 renal = tested on: CAKI-1 renal
TK-10 renal = tested on: TK-10 renal
KM12 colon = tested on: KM12 colon
A498 renal = tested on: A498 renal
SF-268 CNS = tested on: SF-268 CNS
U251 CNS = tested on: U251 CNS
MOLT-4 leukemia = tested on: MOLT-4 leukemia
NCI-H226 lung = tested on: NCI-H226 lung
KM20L2 colon = tested on: KM20L2 colon
SK-OV-3 ovarian = tested on: SK-OV-3 ovarian
RXF 393 renal = tested on: RXF 393 renal
SW-620 colon = tested on: SW-620 colon
OVCAR-5 ovarian = tested on: OVCAR-5 ovarian
HCT-116 colon = tested on: HCT-116 colon
M14 melanoma = tested on: M14 melanoma
HCT-15 colon = tested on: HCT-15 colon
HCC-2998 colon = tested on: HCC-2998 colon
SNB-78 CNS = tested on: SNB-78 CNS
HOP-18 NSCLC = tested on: HOP-18 NSCLC
OVCAR-3 ovarian = tested on: OVCAR-3 ovarian
RPMI-8226 leukemia = tested on: RPMI-8226 leukemia
SNB-75 CNS = tested on: SNB-75 CNS

Measured: TGI

CCOC(=O)C(C(=O)OCC)P(=S)(S)c1ccccc1 (stereo not given)
not listed: HCT-116 colon | M14 melanoma | HCT-15 colon | HCC-2998 colon | SNB-78 CNS | HOP-18 NSCLC | OVCAR-3 ovarian | RPMI-8226 leukemia | SNB-75 CNS
> 100 µM: all other assays above

COC(=O)C(=O)C(CC(=O)Nc1c(C)cccc1C)C(=O)OC (stereo not given)
not listed: COLO 205 colon | DMS 273 small cell lung | A498 renal | SNB-75 CNS
> 100 µM: all other assays above

CCOC(=O)C(/C(=N/NC(=O)OC)C(=O)Nc1ccc(C(C)=O)cc1)c1cnc2ccccc2n1 (stereo not given)
not listed: DMS 273 small cell lung | SK-MEL-2 melanoma | MOLT-4 leukemia | RPMI-8226 leukemia
> 100 µM: all other assays above
